{"source": "patent US10280170B2", "about": "“Substituted 4,5,6,7-tetrahydro-pyrazolo[1,5-a]pyrazine derivatives and 5,6,7,8-tetrahydro-4H-pyrazolo[1,5-a][1,4]diazepine derivatives as Ros1 inhibitors” (Janssen Pharmaceutica NV, priority 2014, dated 2019)", "key": {"[1]": {"molecular_target": "Ba/F3 cells containing Ros1 with G2032R mutation (Homo sapiens, UniProt P08922, G2032R, cells depend on it, form not given)", "sequence (P08922 whole entry G2032R, form open)": "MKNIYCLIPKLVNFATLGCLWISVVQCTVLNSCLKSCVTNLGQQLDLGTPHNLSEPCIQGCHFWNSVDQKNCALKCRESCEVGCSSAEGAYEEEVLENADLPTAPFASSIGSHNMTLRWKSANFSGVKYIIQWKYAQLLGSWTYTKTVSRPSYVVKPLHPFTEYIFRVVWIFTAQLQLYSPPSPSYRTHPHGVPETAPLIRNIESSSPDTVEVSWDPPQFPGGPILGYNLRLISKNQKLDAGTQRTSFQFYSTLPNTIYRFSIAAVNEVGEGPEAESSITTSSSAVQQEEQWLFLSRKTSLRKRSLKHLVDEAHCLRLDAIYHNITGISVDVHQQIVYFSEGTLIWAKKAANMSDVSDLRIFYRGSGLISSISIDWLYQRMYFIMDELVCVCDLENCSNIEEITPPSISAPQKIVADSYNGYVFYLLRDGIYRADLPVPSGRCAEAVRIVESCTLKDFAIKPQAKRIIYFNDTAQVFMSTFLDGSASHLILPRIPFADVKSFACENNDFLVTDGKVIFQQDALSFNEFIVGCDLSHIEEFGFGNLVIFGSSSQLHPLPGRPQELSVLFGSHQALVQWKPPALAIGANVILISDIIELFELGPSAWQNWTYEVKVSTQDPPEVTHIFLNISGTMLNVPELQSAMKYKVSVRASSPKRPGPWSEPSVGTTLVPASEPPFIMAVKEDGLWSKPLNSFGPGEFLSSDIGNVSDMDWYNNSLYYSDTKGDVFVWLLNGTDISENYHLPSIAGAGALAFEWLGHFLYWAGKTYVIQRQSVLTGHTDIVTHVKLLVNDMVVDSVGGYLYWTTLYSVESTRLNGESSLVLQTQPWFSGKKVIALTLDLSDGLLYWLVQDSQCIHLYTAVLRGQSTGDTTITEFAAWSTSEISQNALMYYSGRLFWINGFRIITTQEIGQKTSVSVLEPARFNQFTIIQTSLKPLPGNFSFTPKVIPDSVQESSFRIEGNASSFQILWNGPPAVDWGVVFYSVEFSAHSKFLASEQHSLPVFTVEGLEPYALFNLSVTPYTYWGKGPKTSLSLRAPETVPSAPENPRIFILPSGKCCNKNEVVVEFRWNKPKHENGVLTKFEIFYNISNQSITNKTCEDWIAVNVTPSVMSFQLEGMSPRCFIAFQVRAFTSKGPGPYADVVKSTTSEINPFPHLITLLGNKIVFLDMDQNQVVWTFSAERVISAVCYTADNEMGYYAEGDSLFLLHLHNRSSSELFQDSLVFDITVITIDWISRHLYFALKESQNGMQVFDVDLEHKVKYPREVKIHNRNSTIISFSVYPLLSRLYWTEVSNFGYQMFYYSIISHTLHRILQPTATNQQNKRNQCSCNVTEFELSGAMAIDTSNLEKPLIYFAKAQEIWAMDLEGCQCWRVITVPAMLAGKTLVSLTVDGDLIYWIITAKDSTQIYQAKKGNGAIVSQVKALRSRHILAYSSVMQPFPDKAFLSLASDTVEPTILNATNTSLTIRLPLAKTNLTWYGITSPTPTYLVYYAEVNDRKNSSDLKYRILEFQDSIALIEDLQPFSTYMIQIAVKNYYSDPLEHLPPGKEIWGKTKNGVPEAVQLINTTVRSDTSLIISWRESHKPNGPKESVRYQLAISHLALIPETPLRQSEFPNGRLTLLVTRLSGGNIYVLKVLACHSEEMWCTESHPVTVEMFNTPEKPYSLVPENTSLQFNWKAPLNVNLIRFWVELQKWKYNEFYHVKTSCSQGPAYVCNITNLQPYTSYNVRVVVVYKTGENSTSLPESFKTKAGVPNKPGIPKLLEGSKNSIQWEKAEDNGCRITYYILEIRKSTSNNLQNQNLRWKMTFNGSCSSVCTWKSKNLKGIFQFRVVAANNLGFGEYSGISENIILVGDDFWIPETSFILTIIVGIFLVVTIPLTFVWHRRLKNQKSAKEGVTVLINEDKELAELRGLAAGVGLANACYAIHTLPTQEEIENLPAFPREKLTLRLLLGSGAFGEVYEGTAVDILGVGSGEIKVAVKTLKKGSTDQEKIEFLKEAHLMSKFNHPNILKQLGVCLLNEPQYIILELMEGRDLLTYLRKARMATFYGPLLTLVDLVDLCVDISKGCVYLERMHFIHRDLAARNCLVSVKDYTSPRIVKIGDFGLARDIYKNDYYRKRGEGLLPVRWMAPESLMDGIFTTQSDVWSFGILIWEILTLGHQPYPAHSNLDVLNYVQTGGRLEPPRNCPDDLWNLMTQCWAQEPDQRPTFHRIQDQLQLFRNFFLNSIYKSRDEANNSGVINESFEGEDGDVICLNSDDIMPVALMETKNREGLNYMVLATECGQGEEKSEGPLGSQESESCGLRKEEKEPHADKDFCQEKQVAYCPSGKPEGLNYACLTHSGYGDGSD", "assay": "Ba/F3-Ros1 cell proliferation assay, G2032R crizotinib-resistance mutant", "assay_type": "cell-based, murine", "conditions": "without IL-3", "procedure": "Ba/F3-Ros1 Cell Proliferation Assay\nThis assay was carried out with Ba/F3 cells containing three different versions of Ros1: the wild-type protein, protein with a mutation at the gatekeeper residue (L2026M), and protein with a mutation identified in a tumor from a patient that became resistant to crizotinib (Xalkori®) treatment (G2032R). Compounds were solubilized in 100% DMSO (dimethyl sulfoxide) and sprayed into polystyrene, tissue culture treated 384-well plates. A 50 μl volume of cell culture medium (phenol red free RPMI-1640, 10% FBS (fetal bovine serum), 2 mM L-Glutamine) containing 20000 Ba/F3-Ros1 cells was added to each well and the plates were placed in an incubator at 37° C. and 5% CO2. After 24 hours, 10 μl of Alamar Blue solution (0.5 mM K3Fe(CN)6, 0.5 mM K4Fe(CN)6, 0.15 mM Resazurin and 100 mM Phosphate Buffer) was added to the wells, incubated for 4 hours at 37° C. and 5% CO2 before RFU's (Relative Fluorescence Units) (ex. 540 nm., em. 590 nm.) were measured in a fluorescence plate reader."}, "[2]": {"system": "Ba/F3 cells containing Ros1 wild-type protein + IL-3", "assay": "Ba/F3-Ros1 cell proliferation counter-screen, wild-type protein in the presence of 10 ng/ml murine IL-3", "assay_type": "cell-based", "conditions": "Mus musculus, BaF3, 24 h, read-out: BaF3-ROS1 + IL3 pIC50 (converted)", "in_short": "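Read-out is resazurin-based Alamar Blue fluorescence (RFU, ex 540 nm, em 590 nm), measured 4 h after dye addition. Before that, wild-type Ros1 Ba/F3 cells had been cultured 24 h with compound in the presence of 10 ng/ml murine IL-3.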"}, "Ros1 enzyme": {"molecular_target": "T1, Ros1 enzyme (Homo sapiens, UniProt P08922)", "T1 construct": "0.5 μg/ml Ros1 enzyme", "T1 sequence (P08922 28-2347)": "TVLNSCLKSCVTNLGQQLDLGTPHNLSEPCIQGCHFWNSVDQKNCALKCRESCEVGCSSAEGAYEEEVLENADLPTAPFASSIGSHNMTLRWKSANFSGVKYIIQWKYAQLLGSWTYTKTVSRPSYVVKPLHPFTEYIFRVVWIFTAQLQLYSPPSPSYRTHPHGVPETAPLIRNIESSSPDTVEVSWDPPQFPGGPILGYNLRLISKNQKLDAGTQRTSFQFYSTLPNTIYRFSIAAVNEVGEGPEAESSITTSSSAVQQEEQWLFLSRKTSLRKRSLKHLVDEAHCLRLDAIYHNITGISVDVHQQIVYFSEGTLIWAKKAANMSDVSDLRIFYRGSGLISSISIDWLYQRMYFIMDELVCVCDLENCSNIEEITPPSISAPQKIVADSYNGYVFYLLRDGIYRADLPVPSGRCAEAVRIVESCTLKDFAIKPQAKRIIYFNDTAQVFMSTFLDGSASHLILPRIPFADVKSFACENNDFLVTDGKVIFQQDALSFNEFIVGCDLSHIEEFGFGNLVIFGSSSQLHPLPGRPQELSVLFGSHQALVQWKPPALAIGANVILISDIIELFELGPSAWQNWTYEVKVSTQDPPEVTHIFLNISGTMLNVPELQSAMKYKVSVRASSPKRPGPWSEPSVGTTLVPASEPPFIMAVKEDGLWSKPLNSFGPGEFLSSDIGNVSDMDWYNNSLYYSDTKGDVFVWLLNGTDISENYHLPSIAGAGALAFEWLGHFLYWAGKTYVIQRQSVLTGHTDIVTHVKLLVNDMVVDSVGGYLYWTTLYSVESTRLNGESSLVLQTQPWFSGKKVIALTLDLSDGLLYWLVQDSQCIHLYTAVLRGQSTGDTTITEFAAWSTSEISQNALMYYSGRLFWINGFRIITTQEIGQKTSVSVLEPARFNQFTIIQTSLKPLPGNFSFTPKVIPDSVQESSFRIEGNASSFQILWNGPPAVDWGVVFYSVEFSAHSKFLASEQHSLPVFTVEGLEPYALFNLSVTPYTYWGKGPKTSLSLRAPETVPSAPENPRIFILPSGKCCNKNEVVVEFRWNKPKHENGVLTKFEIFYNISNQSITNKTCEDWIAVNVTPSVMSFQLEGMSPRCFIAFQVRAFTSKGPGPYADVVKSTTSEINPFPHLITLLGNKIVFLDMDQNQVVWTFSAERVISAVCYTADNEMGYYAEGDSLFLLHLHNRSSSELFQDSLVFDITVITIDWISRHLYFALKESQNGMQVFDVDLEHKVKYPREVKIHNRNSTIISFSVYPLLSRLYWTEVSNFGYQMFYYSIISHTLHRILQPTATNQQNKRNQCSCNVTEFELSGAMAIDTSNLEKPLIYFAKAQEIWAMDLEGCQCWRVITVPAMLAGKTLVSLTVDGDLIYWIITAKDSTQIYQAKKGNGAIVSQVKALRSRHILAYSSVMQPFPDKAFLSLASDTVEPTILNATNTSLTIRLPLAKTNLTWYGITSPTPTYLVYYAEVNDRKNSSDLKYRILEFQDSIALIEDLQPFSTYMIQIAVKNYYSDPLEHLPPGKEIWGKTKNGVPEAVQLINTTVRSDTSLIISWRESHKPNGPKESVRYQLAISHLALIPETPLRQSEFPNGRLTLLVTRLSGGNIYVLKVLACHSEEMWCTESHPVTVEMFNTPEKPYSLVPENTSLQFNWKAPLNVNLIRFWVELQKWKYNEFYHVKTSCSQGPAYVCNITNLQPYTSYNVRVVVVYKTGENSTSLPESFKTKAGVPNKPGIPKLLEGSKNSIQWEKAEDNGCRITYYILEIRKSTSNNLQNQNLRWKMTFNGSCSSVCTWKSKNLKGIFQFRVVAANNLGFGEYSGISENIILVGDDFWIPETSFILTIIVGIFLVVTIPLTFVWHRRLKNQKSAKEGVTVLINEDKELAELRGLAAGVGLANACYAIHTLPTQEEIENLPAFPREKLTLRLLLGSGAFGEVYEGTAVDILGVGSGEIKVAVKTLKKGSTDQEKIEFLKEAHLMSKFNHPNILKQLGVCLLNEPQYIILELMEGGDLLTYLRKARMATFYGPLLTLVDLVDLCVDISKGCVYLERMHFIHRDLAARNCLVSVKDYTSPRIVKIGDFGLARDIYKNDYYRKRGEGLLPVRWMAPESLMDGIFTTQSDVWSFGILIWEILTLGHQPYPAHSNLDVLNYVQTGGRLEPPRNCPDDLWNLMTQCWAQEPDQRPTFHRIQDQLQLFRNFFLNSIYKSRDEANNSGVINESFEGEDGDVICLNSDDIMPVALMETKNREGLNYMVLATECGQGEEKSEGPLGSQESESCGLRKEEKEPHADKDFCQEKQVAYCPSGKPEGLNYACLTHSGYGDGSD", "assay": "Ros1 enzymatic assay", "assay_type": "biochemical", "conditions": "Ros1 enzymatic assay; read-out: ROS1 pIC50 (converted)", "in_short": "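Ros1 kinase, IRS-Tide peptide, 20 μM ATP + [33P]ATP (substrate-mix concentrations); Tris-HCl pH7.5, 10 mM MgCl2, 1 mM EGTA, 0.01% Tween-20; 120 min RT; EDTA/excess ATP stop, streptavidin beads 15 min, LEADseeker imaging.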"}, "[3]": {"system": "Ros pY2274 in HCC78 cells", "assay": "pROS1 immunofluorescence assay in HCC78 cells", "assay_type": "cell-based", "conditions": "Homo sapiens, HCC78, 4 h, read-out: HCC78-pRos1 pIC50 (converted)", "in_short": "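HCC78 NSCLC cells treated with compound for 4 h at 37 °C, then fixed and immunostained for ROS1 pY2274 (Alexa Fluor 680, read at 700 nm). Total ROS1 stained in parallel (IRDye800cw, 800 nm) and used to normalize phospho signal.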"}, "[4]": {"molecular_target": "Ba/F3 cells containing Ros1 with a mutation at the gatekeeper residue (L2026M) (Homo sapiens, UniProt P08922, L2026M, cells depend on it, form not given)", "sequence (P08922 whole entry L2026M, form open)": "as the sequence (P08922 whole entry G2032R, form open) above, with L2026M, R2032G counted along it", "assay": "Ba/F3-Ros1 cell proliferation assay, L2026M gatekeeper mutant", "assay_type": "cell-based, murine", "conditions": "without IL-3", "in_short": "(§1)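 Ba/F3 cells expressing wild-type, L2026M or G2032R Ros1, 20000 cells/well in phenol red-free RPMI-1640 with 10% FBS, 2 mM L-glutamine, exposed to compound for 24 h at 37 °C, 5% CO2. Viability read by Alamar Blue (resazurin) fluorescence, ex 540/em 590 nm, after 4 h further incubation.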"}, "[5]": {"molecular_target": "T2, Ba/F3 cells containing Ros1 wild-type protein (Homo sapiens, UniProt P08922, cells depend on it, form not given)", "T2 construct": "The background only speaks of 'a number of different unrelated proteins' and names SLC34A2-ROS1 for HCC78 cells", "T2 sequence (P08922 whole entry, stated change not applied)": "as the sequence (P08922 whole entry G2032R, form open) above, with R2032G counted along it", "assay": "Ba/F3-Ros1 cell proliferation assay, wild-type Ros1", "assay_type": "cell-based, murine", "conditions": "without IL-3", "in_short": "as §1"}, "[6]": {"system": "HCC78 non-small cell lung cancer cells", "assay": "HCC78 cell proliferation assay", "assay_type": "cell-based", "conditions": "Homo sapiens, HCC78, 96 h, read-out: HCC-78 PROL pEC50 (converted)", "in_short": "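HCC78 NSCLC cells (~1000/well) in RPMI-1640 with 10% FBS were treated 24 h after seeding and exposed to compound for 4 days at 37 °C. Viability was read by MTT, with absorbance at 538 nm after DMSO/glycine solubilization.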"}}, "data": [{"smiles": "CC(C)(C#N)c1ccc(COc2ccc(-c3c(-c4ccncc4)nn4c3C(=O)NCC4)cc2)cc1", "note": "[Compound 10]", "values": [{"measurement": "Ba/3 Ros1 G2032R (-IL-3) pIC50", "setting": "[1]", "result": 6.6}, {"measurement": "CC50", "setting": "[2]", "result": "> 10000", "unit": "nM"}, {"measurement": "IC50", "setting": "Ros1 enzyme", "result": 79.4, "unit": "nM"}, {"measurement": "melting point", "result": 280, "unit": "°C"}, {"measurement": "IC50", "setting": "[3]", "result": 25.1, "unit": "nM"}, {"measurement": "Ba/F3 Ros1 L2026M (-IL-3) pIC50", "setting": "[4]", "result": 6.9}, {"measurement": "BaF3-ROS1-IL3 pIC50", "setting": "[5]", "result": 7.1}, {"measurement": "EC50", "setting": "[6]", "result": 158, "unit": "nM"}]}]}
